Laboratory results reported in US8735438B2, “Substituted-aryl-2-phenylethyl-1H-imidazole compounds as subtype selective modulators of alpha 2B and/or alpha 2C adrenergic receptors” (Allergan, Inc., priority 2008, dated 2014).
pEC50: −log10 of the molar value. Read-outs that look alike come from different tables or passages of the source.

How the values were obtained:
Type in all cases: cell-based
alpha 2C receptor = target: T1, alpha 2C receptor (Homo sapiens, UniProt P18825); assay: RSAT (Receptor Selection and Amplification Technology) assay, alpha 2C; conditions: for Alpha 2C intrinsic activity (efficacy), value in parentheses: ratio of maximal effect to that of standard full agonist brimonidine (UK14304)
T1 construct: expressed in transfected cells; host or cells: NIH-3T3 cells
T1 sequence (P18825 1-462): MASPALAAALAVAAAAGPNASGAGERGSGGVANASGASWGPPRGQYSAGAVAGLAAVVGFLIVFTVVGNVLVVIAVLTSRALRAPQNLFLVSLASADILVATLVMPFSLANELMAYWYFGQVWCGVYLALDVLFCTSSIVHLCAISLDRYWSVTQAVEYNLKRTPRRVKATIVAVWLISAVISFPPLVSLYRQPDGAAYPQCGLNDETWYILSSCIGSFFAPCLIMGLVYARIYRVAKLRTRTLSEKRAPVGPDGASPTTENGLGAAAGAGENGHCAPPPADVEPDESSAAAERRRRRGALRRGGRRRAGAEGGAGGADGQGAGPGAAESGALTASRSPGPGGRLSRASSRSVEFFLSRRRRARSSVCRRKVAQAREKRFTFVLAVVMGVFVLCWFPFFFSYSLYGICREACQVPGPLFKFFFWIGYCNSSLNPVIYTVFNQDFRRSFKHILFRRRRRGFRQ
Protocol: (§1) The RSAT assay measures a receptor-mediated loss of contact inhibition that results in selective proliferation of receptor-containing cells in a mixed population of confluent cells. The increase in cell number is assessed with an appropriate transfected marker gene such as β-galactosidase, the activity of which can be easily measured in a 96-well format. Receptors that activate the G protein, Gq, elicit this response. Alpha 2 receptors, which normally couple to Gi, activate the RSAT response when coexpressed with a hybrid Gq protein that has a Gi receptor recognition domain, called Gq/i5.
(§2) NIH-3T3 cells are plated at a density of 2×10^6 cells in 15 cm dishes and maintained in Dulbecco's modified Eagle's medium supplemented with 10% calf serum. One day later, cells are cotransfected by calcium phosphate precipitation with mammalian expression plasmids encoding p-SV-β-galactosidase (5-10 μg), receptor (1-2 μg) and G protein (1-2 μg). 40 μg salmon sperm DNA may also be included in the transfection mixture. Fresh media is added on the following day and 1-2 days later, cells are harvested and frozen in 50 assay aliquots. Cells are thawed and 100 μl added to 100 μl aliquots of various concentrations of drugs in triplicate in 96-well dishes. Incubations continue 72-96 hr at 37° C. After washing with phosphate-buffered saline, .E-backward.-galactosidase enzyme activity is determined by adding 200 μl of the chromogenic substrate (consisting of 3.5 mM o-nitrophenyl-beta-D-galactopyranoside and 0.5% nonidet P-40 in phosphate buffered saline), incubating overnight at 30° C. and measuring optical density at 420 nm. The absorbance is a measure of enzyme activity, which depends on cell number and reflects a receptor-mediated cell proliferation. The efficacy or intrinsic activity is calculated as a ratio of the maximal effect of the drug to the maximal effect of a standard full agonist for each receptor subtype. Brimonidine, also called UK14304, the chemical structure of which is shown below, is used as the standard agonist for the alpha 2A, alpha 2B and alpha 2C receptors.

alpha 2B receptor = target: T2, alpha 2B receptor (Homo sapiens, UniProt P18089); assay: RSAT (Receptor Selection and Amplification Technology) assay, alpha 2B; conditions: for Alpha 2B intrinsic activity (efficacy), value in parentheses / EC50: NIH-3T3 cells cotransfected with receptor and Gq/i5; for Alpha 2B intrinsic activity (efficacy), value in parentheses: ratio of maximal effect to that of standard full agonist brimonidine (UK14304); for EC50: read-out: Alpha 2B potency nM (EC50)
T2 construct: expressed in transfected cells; host or cells: NIH-3T3 cells
T2 sequence (P18089 1-450): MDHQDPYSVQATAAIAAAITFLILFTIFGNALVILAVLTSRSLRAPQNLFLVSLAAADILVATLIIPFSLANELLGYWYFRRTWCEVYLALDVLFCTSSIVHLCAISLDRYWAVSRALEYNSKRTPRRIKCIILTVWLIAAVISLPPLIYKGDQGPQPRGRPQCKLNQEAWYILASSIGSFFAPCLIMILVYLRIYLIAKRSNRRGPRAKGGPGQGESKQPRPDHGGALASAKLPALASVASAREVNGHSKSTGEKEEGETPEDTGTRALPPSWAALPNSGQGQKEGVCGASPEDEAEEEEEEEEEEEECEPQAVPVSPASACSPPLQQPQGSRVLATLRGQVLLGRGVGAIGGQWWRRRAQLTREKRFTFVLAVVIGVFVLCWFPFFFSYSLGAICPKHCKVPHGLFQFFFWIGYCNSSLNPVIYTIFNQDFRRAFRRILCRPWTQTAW
Protocol: as §1, §2

alpha 2A receptor = target: T3, alpha 2A receptor (Homo sapiens, UniProt P08913); assay: RSAT (Receptor Selection and Amplification Technology) assay, alpha 2A; conditions: NIH-3T3 cells cotransfected with receptor and Gq/i5; ratio of maximal effect to that of standard full agonist brimonidine (UK14304)
T3 construct: expressed in transfected cells; host or cells: NIH-3T3 cells
T3 sequence (P08913 1-465): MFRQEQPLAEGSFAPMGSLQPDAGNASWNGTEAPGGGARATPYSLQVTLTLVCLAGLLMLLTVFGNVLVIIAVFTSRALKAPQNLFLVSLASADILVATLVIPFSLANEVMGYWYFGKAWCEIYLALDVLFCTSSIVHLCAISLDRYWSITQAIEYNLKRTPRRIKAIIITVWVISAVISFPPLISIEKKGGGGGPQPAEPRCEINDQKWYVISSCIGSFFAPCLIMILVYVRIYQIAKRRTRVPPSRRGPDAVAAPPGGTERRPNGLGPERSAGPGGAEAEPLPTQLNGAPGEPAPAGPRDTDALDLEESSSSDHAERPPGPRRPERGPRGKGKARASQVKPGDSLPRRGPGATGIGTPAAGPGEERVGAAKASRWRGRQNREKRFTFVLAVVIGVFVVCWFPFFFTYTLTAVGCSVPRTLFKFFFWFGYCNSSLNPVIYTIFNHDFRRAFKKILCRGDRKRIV
From the text: The compounds disclosed herein are agonists of alpha 2B/2C adrenergic receptors. […] 76, pp. 308-311 (incorporated herein by reference) and is also described below. Another reference pertinent to this assay is Conklin et al. (1993) Nature 363: 274-6, also incorporated herein by reference.
as §1, §2

[1] = NIH-3T3 cells cotransfected with receptor and Gq/i5

Compound | pEC50 (alpha 2C receptor) | Alpha 2C intrinsic activity (efficacy), value in parentheses (alpha 2C receptor; [1]) | pEC50 (alpha 2B receptor) | Alpha 2B intrinsic activity (efficacy), value in parentheses (alpha 2B receptor) | Alpha 2A intrinsic activity (efficacy), value in parentheses (alpha 2A receptor) | EC50 (alpha 2C receptor; NIH-3T3 cells cotransfected with receptor and Gq/i5, read-out: Alpha 2C potency nM (EC50)) | EC50 (alpha 2B receptor)
Cc1cccc(C(Cc2ccccc2)c2c[nH]cn2)c1C (stereo not shown) | 7.59 | .36 | 8.68 | 1.01 | No Data (.28) |  | 
Clc1cccc(C(Cc2ccccc2)c2c[nH]cn2)c1Cl (stereo not shown) |  | .41 |  | .97 | No Data (.21) | 41 nM | 8.4 nM
Fc1cccc(C(Cc2ccccc2)c2c[nH]cn2)c1F (stereo not shown) |  | No Data (.17) |  | .53 | No Data (.04) |  | 4.4 nM
Cc1ccccc1C(Cc1ccccc1)c1c[nH]cn1 (stereo not shown) |  | No Data (.21) |  | .69 | No Data (.10) |  | 101 nM
Fc1ccccc1C(Cc1ccccc1)c1c[nH]cn1 (stereo not shown) |  | No Data (.18) | 8.46 | .43 | No Data (.04) |  | 
c1ccc(CC(c2ccccc2)c2c[nH]cn2)cc1 (stereo not shown) |  | No Data (.10) | 8.55 | .69 | No Data (.05) |  | 
c1ccc(CC(c2ccncc2)c2c[nH]cn2)cc1 (stereo not shown) |  | No Data (.09) | 7.18 | .74 | No Data (.02) |  | 
Clc1cccc(/C(=C/c2ccccc2)c2c[nH]cn2)c1 |  | No Data (.19) | 8.11 | .80 | No Data (.09) |  | 
